Experimental data: ChEMBL document CHEMBL3875180, “8-Thioalkyl-adenosine derivatives inhibit Listeria monocytogenes NAD kinase through a novel binding mode” (Eur J Med Chem, 2016)
pIC50, pKi: −log10 of the molar value.

How the values were obtained:
[1] = Competitive inhibition of Listeria monocytogenes C-terminal His6-tagged NADK1 expressed in Escherichia coli BL21(DE3) assessed as reduction in NADP production using varying levels of NAD as substrate by glucose-6-phosphate dehydrogenase coupled enzyme based spectrophotometric method
[2] = target: T1, NAD kinase (Homo sapiens, UniProt O95544); assay: Inhibition of human NADK expressed in Escherichia coli BL21(DE3) assessed as reduction in NADP production using NAD as substrate by glucose-6-phosphate dehydrogenase coupled enzyme based spectrophotometric method
T1 sequence (O95544 whole entry): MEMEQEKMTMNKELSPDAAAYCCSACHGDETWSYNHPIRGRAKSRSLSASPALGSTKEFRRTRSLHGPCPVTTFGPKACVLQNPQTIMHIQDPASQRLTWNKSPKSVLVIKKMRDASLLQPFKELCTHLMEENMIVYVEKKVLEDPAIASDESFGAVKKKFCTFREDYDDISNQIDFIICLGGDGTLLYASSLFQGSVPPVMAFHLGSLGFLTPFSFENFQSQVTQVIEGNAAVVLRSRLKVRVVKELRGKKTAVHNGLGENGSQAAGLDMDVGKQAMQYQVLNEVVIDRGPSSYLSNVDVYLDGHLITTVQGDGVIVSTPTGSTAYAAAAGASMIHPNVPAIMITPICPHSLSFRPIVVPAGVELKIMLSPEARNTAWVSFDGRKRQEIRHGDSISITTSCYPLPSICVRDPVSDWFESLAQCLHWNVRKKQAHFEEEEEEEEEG

[3] = target: T2, NAD kinase (Staphylococcus aureus (strain COL), UniProt Q5HH78); assay: (§1) Inhibition of Staphylococcus aureus COL NADK expressed in Escherichia coli BL21(DE3) assessed as reduction in NADP production using NAD as substrate by glucose-6-phosphate dehydrogenase coupled enzyme based spectrophotometric method; parameters: species or system Staphylococcus aureus subsp. aureus COL
T2 sequence (Q5HH78 whole entry): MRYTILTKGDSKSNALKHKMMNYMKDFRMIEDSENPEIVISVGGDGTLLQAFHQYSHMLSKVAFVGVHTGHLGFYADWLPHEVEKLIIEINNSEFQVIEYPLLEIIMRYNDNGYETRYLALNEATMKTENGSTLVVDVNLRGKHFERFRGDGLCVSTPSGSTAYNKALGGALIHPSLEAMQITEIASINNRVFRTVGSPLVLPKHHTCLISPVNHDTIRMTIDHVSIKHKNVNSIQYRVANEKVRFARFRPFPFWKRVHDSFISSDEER

[4] = system: Bacillus subtilis; assay: Inhibition of Bacillus subtilis NADK1 expressed in Escherichia coli BL21(DE3) assessed as reduction in NADP production at 300 uM using NAD as substrate by glucose-6-phosphate dehydrogenase coupled enzyme based spectrophotometric method relative to control
[5] = Inhibition of Listeria monocytogenes C-terminal His6-tagged NADK1 P132S mutant expressed in Escherichia coli BL21(DE3) assessed as reduction in NADP production using varying levels of NAD as substrate by glucose-6-phosphate dehydrogenase coupled enzyme based spectrophotometric method
[6] = as §1, with “of Listeria monocytogenes C-terminal His6-tagged NADK1 harboring” for “of”, “NADK segment 1” for “NADK”
[7] = Inhibition of Staphylococcus aureus COL NADK S132P mutant expressed in Escherichia coli BL21(DE3) assessed as reduction in NADP production using NAD as substrate by glucose-6-phosphate dehydrogenase coupled enzyme based spectrophotometric method; parameters: species or system Staphylococcus aureus subsp. aureus COL
[8] = Inhibition of Bacillus subtilis NADK1 S132P mutant expressed in Escherichia coli BL21(DE3) assessed as reduction in NADP production using NAD as substrate by glucose-6-phosphate dehydrogenase coupled enzyme based spectrophotometric method
[9] = Inhibition of Bacillus subtilis NADK1 harboring Listeria monocytogenes NADK1 segment 1 expressed in Escherichia coli BL21(DE3) assessed as reduction in NADP production using NAD as substrate by glucose-6-phosphate dehydrogenase coupled enzyme based spectrophotometric method
[10] = Inhibition of Bacillus subtilis NADK1 harboring Listeria monocytogenes NADK1 segment 2 expressed in Escherichia coli BL21(DE3) assessed as reduction in NADP production using NAD as substrate by glucose-6-phosphate dehydrogenase coupled enzyme based spectrophotometric method
[11] = Inhibition of human NADK harboring Listeria monocytogenes NADK1 segment 1 expressed in Escherichia coli BL21(DE3) assessed as reduction in NADP production using NAD as substrate by glucose-6-phosphate dehydrogenase coupled enzyme based spectrophotometric method
[12] = Cytotoxicity against human MRC5 cells up to 1 x 10^-4M; assay type: toxicity, cell-based

Structure (SMILES): [N-]=[N+]=NC[C@H]1O[C@@H](n2c(SCC(=O)NCCc3cccc(Br)c3)nc3c(N)ncnc32)[C@H](O)[C@@H]1O
- pKi [1]: 6.00
- pKi [2]: 3.48
- pIC50 [3]: < 3.40
- inhibition [4]: 15%
- pKi [5]: 5.00
- pKi [6]: 5.60
- pKi [7]: 3.77
- pKi [8]: 4.00
- pKi [9]: 4.26
- pKi [10]: 4.52
- pKi [11]: 4.12
- Activity [12]: Non-Toxic
